Laboratory results from patent US9643952B2, “Pyridone compound” (KYOWA HAKKO KIRIN CO., LTD., priority 2012, dated 2017).

Test system: dinitrofluorobenzene-induced auricle edema reaction
Assay: Suppressive action on dinitrofluorobenzene-induced auricle edema reaction in mouse
Type: in vivo
Details: for auricle edema suppression rate (%): BALE/c mice (female), test compound 1% (w/v %) in acetone applied to front and back of auricle (total 20 μL) 1 hr before and 3 hr after induction, auricle thickness 24 hr after induction; for suppressive action on auricle edema response (in words): BALE/c mice, 1% (w/v %) in acetone applied to auricle
Description: BALE/c mice (female, supplied by CHARLES RIVER LABORATORIES JAPAN, INC.) were purchased at the age of 5 weeks. After quarantine and acclimation, mice showing smooth body weight increase and free of abnormality in appearance were used and the test was started at the age of 7 weeks. The mice were housed in a breeding room at room temperature 19-25° C., humidity 30-70%, 12 hr lighting per day (7 a.m.-7 p.m.) with 3 mice in each plastic gauge, and bred on with free ingestion of a commercially available solid feed and water. Two days before the test, the abdomen of the BALE/c mice was shaved, and the mice were immunized by applying 100 μL of a solution {concentration 0.5% [weight (w)/volume (v) %]} of dinitrofluorobenzene (manufactured by Nacalai Tesque) in acetone (manufactured by Wako Pure Chemical Industries, Ltd.) to the shaved part. The reaction was induced by applying dinitrofluorobenzene-acetone solution [concentration 0.2% (w/v %)] to the front and the back of auricle (10 μL to each, total 20 μL) on day 5 after the immunization. A test compound dissolved in acetone at concentration of 1% (w/v %) was administered by applying same to the front and the back of auricle (10 μL to each, total 20 μL) 1 hr before and 3 hr after induction of the reaction. After application, the applied part was air-dried with a dryer. The group applying administered with the test compound was taken as a test compound administration group, and the group applying administered with acetone as a solvent instead of the test compound was taken as a solvent administration group. Also, the group free of immunization and reaction induction but applying administered with acetone instead of the test compound was taken as a normal group. The thickness of auricle was measured using a dial thickness gauge (G-1A manufactured by OZAKI MFG. CO., LTD.) immediately before and 24 hr after induction of the reaction, and the difference thereof was taken as auricle edema. The suppression rate (%) of auricle edema was calculated according to the following formula. [formula]

COCCn1cc(C(=O)N2CCC(c3ccc(F)cc3)CC2)c(Nc2ccc3scnc3c2)c(Cl)c1=O [Compound 206, 4-(benzo[d]thiazol-5-ylamino)-3-chloro-5-[4-(4-fluorophenyl)piperidine-1-carbonyl]-1-(2-methoxyethyl)pyridin-2(1H)-one]
auricle edema suppression rate (%): 30% | suppressive action on auricle edema response (in words): showed a suppressive action on auricle edema response

Cc1c(Nc2ccc(F)cc2F)c(C(=O)N2CCC(c3ccc(F)cc3)CC2)cn(C)c1=O [Compound 125, 4-(2,4-difluorophenylamino)-5-[4-(4-fluorophenyl)piperidine-1-carbonyl]-1,3-dimethylpyridin-2(1H)-one]
auricle edema suppression rate (%): 47% | suppressive action on auricle edema response (in words): showed a suppressive action on auricle edema response

Cc1ccc(Cl)cc1Nc1c(C(=O)N2CCC(c3ccc(F)cc3)CC2)cn(OCCO)c(=O)c1Cl [Compound 204, 3-chloro-4-(5-chloro-2-methylphenylamino)-5-[4-(4-fluorophenyl)piperidine-1-carbonyl]-1-(2-hydroxyethoxyl)pyridin-2(1H)-one]
auricle edema suppression rate (%): 41% | suppressive action on auricle edema response (in words): showed a suppressive action on auricle edema response

Cc1cc(C#N)ccc1Nc1c(C(=O)N2CCC(c3ccc(F)cc3)CC2)cn(C)c(=O)c1Cl [Compound 100, 4-{3-chloro-5-[4-(4-fluorophenyl)piperidine-1-carbonyl]-1-methyl-2-oxo-1,2-dihydropyridin-4-ylamino}-3-methylbenzonitrile]
auricle edema suppression rate (%): 53% | suppressive action on auricle edema response (in words): showed a suppressive action on auricle edema response

COCCn1cc(C(=O)N2CCC(c3ccc(F)cc3)CC2)c(Nc2ccc(F)cc2F)c(Cl)c1=O [Compound 144, 3-chloro-4-(2,4-difluorophenylamino)-5-[4-(4-fluorophenyl)piperidine-1-carbonyl]-1-(2-methoxyethyl)pyridin-2(1H)-one]
auricle edema suppression rate (%): 32%

Cn1cc(C(=O)N2CCC(c3ccc(F)cc3)CC2)c(Nc2ccc(S(C)(=O)=O)cc2F)c(Cl)c1=O [Compound 145, 3-chloro-4-[2-fluoro-4-(methylsulfonyl)phenylamino]-5-[4-(4-fluorophenyl)piperidine-1-carbonyl]-1-methylpyridin-2(1H)-one]
suppressive action on auricle edema response (in words): showed a suppressive action on auricle edema response
